Results from patent US9067894B1, “Compound, composition, and method of activating GIRK potassium channel and use of same for treating conditions of interest” (Vanderbilt University, priority 2013, dated 2015).
Entries after “also recorded” stand apart in the source; their conditions may differ.

Columns and labels:
[1] = target: T1, Adrenergic β1 (Homo sapiens, UniProt P08588); test: Radioligand displacement (Ricerca); format: binding
T1 construct: Ricerca (contract assay)

[2] = target: T2, Melatonin MT1 (Homo sapiens, UniProt P48039); test: Radioligand displacement (Ricerca); format: binding
T2 construct: Ricerca (contract laboratory that ran the panel)

[3] = test system: Phorbol ester; test: Radioligand displacement (Ricerca); format: binding, mouse; conditions: 10 μM
[4] = test system: Rolipram (PDE4); test: Radioligand displacement (Ricerca); format: binding, human; conditions: 10 μM
[5] = target: T3, Bradykinin B1 (Homo sapiens, UniProt P46663); test: Radioligand displacement (Ricerca); format: binding
T3 construct: Ricerca

[6] = test system: GABAA (flunitrazepam); test: Radioligand displacement (Ricerca); format: binding, rat; conditions: 10 μM
[7] = target: T4, GIRK2/3 (Homo sapiens, UniProt P48051+Q92806); test: Thallium flux assay, HEK-293 cells expressing GIRK2/3; format: cell-based; conditions: cell line GIRK2-3
T4 construct: expressed in transfected cells; host or cells: HEK-293
T4 sequence (P48051 1-423): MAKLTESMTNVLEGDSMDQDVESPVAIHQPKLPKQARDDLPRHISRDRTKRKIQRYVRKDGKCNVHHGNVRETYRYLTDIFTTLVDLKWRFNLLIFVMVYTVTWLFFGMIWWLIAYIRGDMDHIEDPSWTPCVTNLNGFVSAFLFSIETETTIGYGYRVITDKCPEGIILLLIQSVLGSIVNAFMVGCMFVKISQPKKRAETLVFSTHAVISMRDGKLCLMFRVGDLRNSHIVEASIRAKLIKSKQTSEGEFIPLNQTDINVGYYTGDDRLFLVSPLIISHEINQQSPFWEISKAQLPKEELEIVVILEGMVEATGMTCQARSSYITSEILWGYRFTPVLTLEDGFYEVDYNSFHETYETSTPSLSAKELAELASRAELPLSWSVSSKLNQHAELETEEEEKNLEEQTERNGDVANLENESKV
T4 sequence (Q92806 1-393): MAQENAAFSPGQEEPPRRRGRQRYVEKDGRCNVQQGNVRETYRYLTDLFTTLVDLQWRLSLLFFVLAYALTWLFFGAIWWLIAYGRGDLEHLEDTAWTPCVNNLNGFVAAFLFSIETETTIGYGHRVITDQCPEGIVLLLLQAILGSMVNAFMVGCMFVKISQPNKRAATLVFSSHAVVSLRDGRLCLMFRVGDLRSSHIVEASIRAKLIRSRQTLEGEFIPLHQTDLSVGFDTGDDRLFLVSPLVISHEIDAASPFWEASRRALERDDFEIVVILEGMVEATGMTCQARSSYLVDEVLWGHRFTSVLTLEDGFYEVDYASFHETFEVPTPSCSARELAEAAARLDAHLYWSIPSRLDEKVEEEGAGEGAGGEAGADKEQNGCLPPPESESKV
Source text: (§1) Cell Line Construction and Cell Culture. HEK-293 cells co-expressing human GIRK1/2 and rat mGlu8 were generated as previously described (Niswender et al., 2008). A HEK-293 cell line (ATCC, Manassas, Va.) expressing human GIRK1 and human GIRK2 was constructed by transfecting HEK-293 cells with GIRK1 and GIRK2 (Origene, Rockville, Md.) cloned into the pBudCE4.1 vector (Life Technologies, Carlsbad, Calif.) using FuGene 6 (Promega, Madison, Wis.) transfection reagent. Unless otherwise noted, other ion channel-expressing cells were prepared by transfecting HEK-293 cells with individual or combinations of subunits: GIRK1, pCMV6-A-BSD; GIRK2, pCMV6-A-puro; GIRK3, pCMV6-A-hygro; GIRK4, pCMV6-A-AC; Kv7.4, pIRESneo3. The Kir2.1 and hERG-expressing cell lines were made by transfecting T-REx-293 cells (Life Technologies, Carlsbad, Calif.) with Kir2.1 and Kv11.1, respectively, cloned into pcDNA5TO. Monoclonal cell lines were produced by limiting-dilution cloning of antibiotic-resistant cells and functional selection using the thallium flux assay described below. Unless otherwise noted, cells were maintained in Minimal Essential Medium, Alpha Medium (Mediatech, Manassas, Va.) supplemented with 10% fetal bovine serum (Sigma-Aldrich, Saint Louis, Mo.) and GlutaGro (Mediatech, Manassas, Va.), referred to henceforth as cell culture medium. […]

[8] = target: T5, Opiate (MOP) (Homo sapiens, UniProt P35372); test: Radioligand displacement (Ricerca); format: binding
T5 construct: Ricerca (contract laboratory that ran the panel)

[9] = target: T6, Kv7.4 (Homo sapiens, UniProt P56696); test: Thallium flux assay, Kv7.4-expressing cells; format: cell-based
T6 construct: expressed in transfected cells; host or cells: HEK-293
Source text: as §1

[10] = test system: Purinergic P2Y; test: Radioligand displacement (Ricerca); format: binding, rat; conditions: 10 μM

T1 sequence (P08588 whole entry): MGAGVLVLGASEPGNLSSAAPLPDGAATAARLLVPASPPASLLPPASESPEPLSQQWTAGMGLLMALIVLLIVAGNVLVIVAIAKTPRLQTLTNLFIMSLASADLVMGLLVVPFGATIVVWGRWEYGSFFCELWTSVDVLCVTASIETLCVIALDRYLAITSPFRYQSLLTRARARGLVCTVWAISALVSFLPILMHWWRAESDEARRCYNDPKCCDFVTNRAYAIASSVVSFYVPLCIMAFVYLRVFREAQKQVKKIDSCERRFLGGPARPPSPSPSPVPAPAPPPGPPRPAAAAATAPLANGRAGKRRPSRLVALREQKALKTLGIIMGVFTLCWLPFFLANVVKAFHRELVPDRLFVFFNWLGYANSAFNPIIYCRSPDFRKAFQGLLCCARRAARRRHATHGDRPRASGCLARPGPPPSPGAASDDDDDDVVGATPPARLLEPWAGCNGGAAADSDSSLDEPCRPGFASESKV
T5 sequence (P35372 whole entry): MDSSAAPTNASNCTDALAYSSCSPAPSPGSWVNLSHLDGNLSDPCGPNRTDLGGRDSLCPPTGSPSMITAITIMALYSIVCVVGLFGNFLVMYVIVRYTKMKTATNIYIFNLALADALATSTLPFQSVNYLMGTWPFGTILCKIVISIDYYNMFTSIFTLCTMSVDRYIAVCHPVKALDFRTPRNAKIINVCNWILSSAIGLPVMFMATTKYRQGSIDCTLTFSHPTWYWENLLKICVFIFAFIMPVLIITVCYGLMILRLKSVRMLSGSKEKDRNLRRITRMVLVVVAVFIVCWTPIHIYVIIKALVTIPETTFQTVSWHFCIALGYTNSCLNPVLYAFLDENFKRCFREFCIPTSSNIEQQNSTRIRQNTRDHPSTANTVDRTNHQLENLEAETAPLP
T2 sequence (P48039 whole entry): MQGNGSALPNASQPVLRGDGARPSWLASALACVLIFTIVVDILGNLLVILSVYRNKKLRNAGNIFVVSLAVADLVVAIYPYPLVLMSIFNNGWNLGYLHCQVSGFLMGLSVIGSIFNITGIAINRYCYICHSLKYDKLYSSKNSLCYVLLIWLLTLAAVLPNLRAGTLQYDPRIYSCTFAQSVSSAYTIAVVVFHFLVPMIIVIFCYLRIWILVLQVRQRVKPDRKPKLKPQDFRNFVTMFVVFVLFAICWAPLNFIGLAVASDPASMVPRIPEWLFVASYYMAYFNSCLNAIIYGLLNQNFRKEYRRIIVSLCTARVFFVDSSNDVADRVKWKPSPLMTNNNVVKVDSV
T3 sequence (P46663 whole entry): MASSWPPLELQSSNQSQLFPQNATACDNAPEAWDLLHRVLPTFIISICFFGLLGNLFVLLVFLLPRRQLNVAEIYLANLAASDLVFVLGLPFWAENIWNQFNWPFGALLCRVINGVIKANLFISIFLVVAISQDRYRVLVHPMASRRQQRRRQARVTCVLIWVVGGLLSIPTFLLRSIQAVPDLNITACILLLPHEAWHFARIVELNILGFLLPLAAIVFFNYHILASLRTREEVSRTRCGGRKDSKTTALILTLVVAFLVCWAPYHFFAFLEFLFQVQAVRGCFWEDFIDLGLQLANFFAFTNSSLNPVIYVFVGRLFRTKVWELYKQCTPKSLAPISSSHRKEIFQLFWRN

## Cc1cc(NC(=O)Nc2ccc(F)c(F)c2)n(-c2ccccc2)n1 [VU0456810, 1-(3,4-difluorophenyl)-3-(3-methyl-1-phenyl-1H-pyrazol-5-yl)urea]
[1]
  inhibition at 10 µM: 0%
[2]
  inhibition at 10 µM: 11%
[3]
  % Inhibition: 1%
[4]
  % Inhibition: 11%
[5]
  inhibition at 10 µM: -2%
[6]
  % Inhibition: 24%
[7]
  EC50 Thallium Flux: complete lack of efficacy; also recorded: Inactive
[7]; listed as 2
  EC50 Thallium Flux: inactive
[8]
  inhibition at 10 µM: 21%
[9]
  Potency: Inactive
[10]
  % Inhibition: 4%
